Assay results: publication PMC6826021 (Disease Models & Mechanisms, 2019)

Experiments:
Etx-treated MDCK cells [1] = type: cell-based, canine
[2] = target: Etx monomer binding to MDCK cells (Clostridium perfringens, UniProt Q02307); type: cell-based
[3] = target: Etx heptamer (oligomerization) (Clostridium perfringens, UniProt Q02307); type: cell-based
[4] = target: Etx pore formation in DPPC/cholesterol liposomes (Clostridium perfringens, UniProt Q02307); type: biochemical
Etx-Etx monomers = Etx-Etx monomers (Clostridium perfringens, UniProt Q02307); type: binding
Etx-Etx monomers, sequence (Q02307 46-306 limits assumed): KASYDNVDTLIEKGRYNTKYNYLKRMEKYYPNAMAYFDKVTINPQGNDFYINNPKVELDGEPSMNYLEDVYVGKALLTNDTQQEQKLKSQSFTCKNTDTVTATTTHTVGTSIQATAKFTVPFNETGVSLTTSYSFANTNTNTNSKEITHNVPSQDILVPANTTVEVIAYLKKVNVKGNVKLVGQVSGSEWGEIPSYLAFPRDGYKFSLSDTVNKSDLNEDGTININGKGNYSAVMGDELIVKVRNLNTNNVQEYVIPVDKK

[5] = tested on: Ca2+ influx in Etx-treated MDCK cells; type: cell-based, canine
Etx-treated MDCK cells [6] = type: cell-based, canine; remark: listed apart in the source
[7] = tested on: mitochondrial membrane potential in Etx-treated MDCK cells; type: cell-based, canine
[8] = tested on: ROS in Etx-treated MDCK cells; type: cell-based, canine
[9] = tested on: HMGB1 translocation in Etx-treated MDCK cells; type: cell-based, canine
[10] = tested on: Etx-challenged C57BL/6 mice; settings: mouse, in vivo
C57BL/6 mice = settings: mouse, in vivo
Etx = settings: cited from earlier work

Etx heptamer (oligomerization), sequence (Q02307 46-306 limits assumed): as above
Etx pore formation in DPPC/cholesterol liposomes, sequence (Q02307 46-306 limits assumed): as above
Etx monomer binding to MDCK cells, sequence (Q02307 46-306 limits assumed): as above

CCCOC1O[C@H](CO)[C@@H](O)[C@H](O)[C@H]1O (stereo partly drawn) [Glycoside-2]
protection of Etx-treated MDCK cells (Etx-treated MDCK cells [1]): concentration-dependent protection | survival of Etx-challenged MDCK cells compared to Etx (Etx-treated MDCK cells [1]): greater than 50%

CCCCOC1O[C@H](CO)[C@@H](O)[C@H](O)[C@H]1O (stereo partly drawn) [Glycoside-4]
cell survival upon Etx challenge (MTT), pre- and post-treatment (Etx-treated MDCK cells [1]): increase in cell survival | protection of Etx-treated MDCK cells (Etx-treated MDCK cells [1]): highest survival efficiency | survival of Etx-challenged MDCK cells compared to Etx (Etx-treated MDCK cells [1]): greater than 50% | effect on binding of Etx monomer to the cell membrane [2]: no effect | effect on Etx heptamer (oligomer) intensity [3]: substantial decrease in heptamer intensity | effect on pore formation in Etx-treated liposomes [4]: tearings disappeared | Etx (protein-protein) interaction in SPR (Etx-Etx monomers): no Etx (protein-protein) interaction could be seen | Ca2+ entry, Fluo-4 AM fluorescence microscopy [5]: complete reduction in Ca^2+ entry | Ca2+ influx, Fluo-4 AM intensity by FACS [5]: drastic reduction of Fluo-4 AM intensity | PI+ cells (Etx-treated MDCK cells [6]): drastic reduction in PI^+ cells | annexin V+/PI+ cells (phosphatidylserine exposure) (Etx-treated MDCK cells [6]): absence of annexin V^+/PI^+ cells | mitochondrial membrane potential (ΨΔm), JC-1 [7]: could stabilize ΨΔm | ROS levels, DCFDA [8]: decreased levels of ROS | HMGB1 localization [9]: largely remained in the nucleus | mice protected [10]: 60% | mice with improved liver (H&E) [10]: 60% | mice with protected brain structures (H&E) [10]: 60% | death rate ([10]; ip, 50 mg/kg): 40% | mortality or clinical signs (seizures, convulsions and depression) (C57BL/6 mice): No mortality or clinical signs

O=C(O)CN(CCOCCOCCN(CC(=O)O)CC(=O)O)CC(=O)O [EGTA, reference compound]
Ca2+ influx, Fluo-4 AM intensity by FACS [5]: blocked the Etx-invoked influx

C[C@H](CCC(=O)O)C[C@H](C)C[C@H](C)C(=O)/C=C(\O)[C@H](C)C[C@H](C)C/C=C/[C@@H](C)[C@@H](O)[C@@H](C)[C@@H](O)C[C@@H]1CC[C@@](C)([C@H]2CC[C@@](C)([C@@H](C)O)O2)O1 [ionomycin, reference compound]
Ca2+ influx, Fluo-4 AM intensity by FACS [5]: Clear intensity shift

c1ccc2c(c1)Cc1cccc3noc-2c13 [6H-anthra[1,9-cd]isoxazol]
inhibition of Etx binding or oligomerization (Etx): none of them could inhibit

CCCCCCOC1O[C@H](CO)[C@@H](O)[C@H](O)[C@H]1O (stereo partly drawn) [Glycoside-6]
protection of Etx-treated MDCK cells (Etx-treated MDCK cells [1]): concentration-dependent protection | survival of Etx-challenged MDCK cells compared to Etx (Etx-treated MDCK cells [1]): greater than 50%

c1ccc2nc3occc3cc2c1 [furo[2,3-b]quinoline]
inhibition of Etx binding or oligomerization (Etx): none of them could inhibit
